Laboratory results taken from patent publication US12544343B2, “Treatment of inflammatory condition in mucous membrane or skin” (MUCOCORT AB, priority 2019, dated 2026).
“Also recorded” adds a separate entry of the source.

Assays:
[1] = system: IL-2 production; test: IL-2 production by PHA-stimulated human PBMC (ELISA); type: cell-based; conditions: 100 mM propane-1,2-diol, 1 μg/ml PHA-stimulated PBMC, FIG. 4
Procedure: Human venous blood was sampled and collected in heparinized vials and mix well by gently inverting the tubes several times. Human peripheral blood mononuclear cells (PBMCs) were isolated by gradient centrifugation using Ficoll-Histopaque®. Cells were washed (centrifuged at 400×g for 10 min) with sterile phosphate-buffered saline (PBS). PBS was discarded, and the cell pellet re-suspended in sterile Dulbecco's Modified Eagle's Medium (DMEM). Cells were then counted by haemocytometer using white blood cell (W.B.C.) diluting fluid: 15 μl of cell suspension was added to 15 μl trypan blue and mixed well. The cell suspension was loaded in a haemocytometer and the cells were counted. The cell concentration was adjusted at 2×10^6 cells/ml with DMEM supplemented with 1% of penicillin-streptomycin solution and 5% human serum. The approximate yield of cells varied between 107-10^8 cells/ml. 1 ml of cell suspension was seeded in a 24 well culture plate. 1 ml propane-1,2-diol diluted in DMEM was added at various concentrations (from 0 to 100 mM). Phytohemagglutinin (PHA), 15 μl, was added to a final concentration of 1 μg/ml. When the effect of different concentrations of PHA were studied (FIG. 1), the range used varied from 0 to 25 μg/ml. […] IL-2 production was determined by ELISA using procedures (BioSite, Sweden; Art. No: EA102165) according to the manufacturer's specifications.

[2] = system: TNF-α production; test: TNF-α production by LPS-stimulated human PBMC (ELISA); type: cell-based
Procedure: Human venous blood was sampled and collected in heparinized vials and mix well by gently inverting the tubes several times. Human peripheral blood mononuclear cells (PBMCs) were isolated by gradient centrifugation using Ficoll-Histopaque®. Cells were washed (centrifuged at 400×g for 10 min) with sterile phosphate-buffered saline (PBS). PBS was discarded, and the cell pellet re-suspended in sterile Dulbecco's Modified Eagle's Medium (DMEM). Cells were then counted by haemocytometer using white blood cell (W.B.C.) diluting fluid: 15 μl of cell suspension was added to 15 μl trypan blue and mixed well. The cell suspension was loaded in a haemocytometer and the cells were counted. The cell concentration was adjusted at 2×10^6 cells/ml with DMEM supplemented with 1% of penicillin-streptomycin solution and 5% human serum. The approximate yield of cells varied between 107-10^8 cells/ml. 1 ml of cell suspension was seeded in a 24 well culture plate. 1 ml propane-1,2-diol diluted in DMEM was added at various concentrations (from 0 to 100 mM). Phytohemagglutinin (PHA), 15 μl, was added to a final concentration of 1 μg/ml. When the effect of different concentrations of PHA were studied (FIG. 1), the range used varied from 0 to 25 μg/ml. The plate was incubated for 24 h at +37° C. and in 5% CO2. The plate was then frozen at −20° C. until further analysis. After thawing the samples, an enzyme-linked immunosorbent assay (ELISA) was performed according to the manufacturer's specifications. In vitro culture of human PBMCs was performed as described above in Example 1. In brief, 1 ml propane-1,2-diol was added to 1 ml PBMC to obtain a range of 30 final concentrations (0 to 100 mM). 15 μl LPS was added to a final concentration of 100 nM and the cell suspension was incubated at 37° C. in 5% CO2 for 24 h. The plate was then frozen in −20° C. until the ELISA analysis. TNF-α production was determined by ELISA using procedures (BioSite, Sweden; Art. No: EA102165) according to the manufacturer's specifications.

[3] = system: PBMC; type: cell-based, human
Procedure: This Example investigated whether the inhibition of TNF-α in Example 2 and/or IL-2 in Example 3 was due to cell death of the PBMCs.
PBMCs were isolated from one donor as described in Example 1. 1 ml of 2×10^6 PBMC cells were added to 12 wells in a 24-well plate. 1 ml of 2000 mM propane-1,2-diol was added to two of the wells to get a final concentration of 1000 mM (8% propane-1,2-diol). The same procedure was used to obtain decreasing concentrations of propane-1,2-diol (500 mM (4% propane-1,2-diol), 250 mM (2% propane-1,2-diol), 125 mM (1% propane-1,2-diol), 62.5 mM (0.5% propane-1,2-diol)). After 24 hrs incubation at 37° C. and 5% CO2, 15 μl of each cell culture was mixed with 15 μl of tryptan blue and dead cells out of 100 cells were counted under a light microscope.

[4] = system: pig oral mucosa; test: Dehydration effect towards oral mucosa (immersion of tissue in solution)
Procedure: Fresh pig oral mucosa (300-700 mg) was equilibrated at room temperature at 40% relative humidity (RH), weighed and immersed in 5 ml of the investigated solution for 20 h at room temperature (RT, ˜20-25° C.). The tissue was removed from the solution, dried by blotting and weighed. Finally, it was dried at +40° C. for 24 h.

## CC(O)CO (stereo not shown) [propane-1,2-diol]
[1]; patient A
  IL-2 production reduced, patient A: 53%
[1]; patient B
  IL-2 production reduced, patient B: 64%
[2]; 0 to 100 mM, LPS-stimulated PBMC from 4 individuals, FIGS. 1A-1D
  inhibition of TNF-α, concentration dependence: concentration-dependent inhibition
[2]; 100 mM propane-1,2-diol, LPS-stimulated PBMC from 4 individuals, 24 h, FIGS. 1A-1D
  inhibition of TNF-α at 100 mM: maximal inhibition; also recorded: strong inhibition
[2]; 100 mM, LPS-stimulated PBMCs from 12 different individuals, FIG. 2
  inhibition of TNF-α in PBMC from 12 individuals: inhibition was observed in all 12 individuals
[3]
  cell death of peripheral blood mononuclear cells at 5% (w/v): induced a significant cell death
  toxic effect / cell death of PBMCs, up to 1%: did not have any significant toxic effect
  toxic effects / cell death at an amount according to the invention: does not have any significant toxic effects
[4]; propane-1,2-diol solutions at concentration of 1% and 5%
  dehydration effect at 1% and 5%: No dehydration effect
[4]; propane-1,2-diol solutions at concentrations 50%, 80% and 100%
  dehydration effect at 50%, 80% and 100%: dehydration effect was evident
